According to ChEMBL document CHEMBL1201862, “PubChem BioAssay data set” (2004):
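Step 1: Grow cells in 96-well plates. Step 2: Expose to compound for 48 hours at 5 concentrations. Step 3: Interpolate endpoints linearly; if unreached, use highest concentration. GI50 marks 50% less growth.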 Active and inactive are the calls of the source. Rule as the data show it: active = GI50 up to about 1.1 µM and inactive = higher. Square brackets hold non-standard residues; d marks the D form. Peptide text beside a SMILES is read from it. * marks the point of attachment. Phe(4-NO2) = N[CH](Cc1ccc([N+](=O)[O-])cc1)C(=O)O; Cbz = O=C(OCc1ccccc1)*

Key:
Test in all cases: growth of human tumour cells (NCI), 48 h
[1] = system: MDA-N
[2] = system: CCRF-CEM
[3] = system: OVCAR-8
[4] = system: T47D
[5] = system: M14
[6] = system: HOP-62
[7] = system: UACC-62
[8] = system: Malme-3M
[9] = system: 786-0
[10] = system: SN12C
[11] = system: A498
[12] = system: PC-3
[13] = system: K562
[14] = system: SNB-75
[15] = system: COLO 205
[16] = system: MDA-MB-435
[17] = system: SNB-19
[18] = system: SF-268
[19] = system: MDA-MB-231
[20] = system: SW-620
[21] = system: MOLT-4
[22] = system: NCI-H522
[23] = system: MCF7
[24] = system: NCI-H460
[25] = system: HL-60
[26] = system: HCC 2998
[27] = system: RXF 393
[28] = system: KM12
[29] = system: TK-10
[30] = system: HCT-116
[31] = system: SK-MEL-2
[32] = system: OVCAR-3
[33] = system: HCT-15
[34] = system: NCI-H23
[35] = system: SF-295
[36] = system: ACHN
[37] = system: A549
[38] = system: RPMI-8226
[39] = system: SR
[40] = system: U-251
[41] = system: NCI-H226
[42] = system: EKVX
[43] = system: OVCAR-4
[44] = system: SK-OV-3
[45] = system: SK-MEL-28
[46] = system: IGROV-1
[47] = system: UO-31
[48] = system: Hs-578T
[49] = system: UACC-257
[50] = system: HT-29
[51] = system: BT-549
[52] = system: DU-145
[53] = system: SK-MEL-5
[54] = system: NCI/ADR-RES
[55] = system: OVCAR-5
[56] = system: SF-539
[57] = system: LOX IMVI

Measured: GI50

CCCCCCC(N)(CCCCCC)C(=O)Nn1c(C)ccc1C
inactive: [1] > 100 µM | [2] > 100 µM | [3] 50 µM | [4] 13.6 µM | [5] > 100 µM | [6] > 100 µM | [7] 48 µM | [8] > 100 µM | [9] 28.6 µM | [10] > 100 µM | [11] > 100 µM | [12] 5.14 µM | [13] > 100 µM | [14] 29.4 µM | [15] 57.4 µM | [16] > 100 µM | [17] > 100 µM | [18] 16 µM | [19] 88.3 µM | [20] > 100 µM | [21] > 100 µM | [22] 53.8 µM | [23] 14.6 µM | [24] 31.8 µM | [25] 5.36 µM | [26] > 100 µM | [27] 25.7 µM | [28] 15.5 µM | [29] > 100 µM | [30] 10.9 µM | [31] > 100 µM | [32] > 100 µM | [34] 15.5 µM | [35] > 100 µM | [36] 6.55 µM | [37] 11.4 µM | [38] 13.6 µM | [39] 29.9 µM | [40] > 100 µM | [41] 43.7 µM | [42] 12 µM | [43] > 100 µM | [44] > 100 µM | [45] > 100 µM | [46] > 100 µM | [47] 25.1 µM | [48] 18.8 µM | [49] 36.4 µM | [50] 28.4 µM | [51] > 100 µM | [52] > 100 µM | [53] 21.9 µM | [54] 16 µM | [55] > 100 µM
24 µM: [33]

CCOC(=O)CCC(NC(=O)OCc1ccccc1)C(=O)NC(CCC(=O)OCC)C(=O)NC(CCC(=O)OCC)C(=O)NC(CCC(=O)OCC)C(=O)NC(CCC(=O)OCC)C(=O)NC(Cc1ccc([N+](=O)[O-])cc1)C(=O)NC(CCC(=O)OCC)C(=O)NC(CCC(=O)OCC)C(=O)NC(CCC(=O)OCC)C(=O)NC(CCC(=O)OCC)C(=O)NC(CCC(=O)OCC)C(=O)OCC (stereo not drawn) (Cbz-E(OEt)E(OEt)E(OEt)E(OEt)E(OEt)[Phe(4-NO2)]E(OEt)E(OEt)E(OEt)E(OEt)E(OEt)-OEt; configuration not given here)
> 50 µM: [33]
inactive: [1] > 50 µM | [2] > 50 µM | [4] > 50 µM | [5] 16.8 µM | [6] > 50 µM | [7] > 50 µM | [8] > 50 µM | [56] > 50 µM | [9] > 50 µM | [10] > 50 µM | [11] > 50 µM | [12] > 50 µM | [13] > 50 µM | [14] > 50 µM | [15] > 50 µM | [16] > 50 µM | [17] > 50 µM | [18] > 50 µM | [19] > 5 µM | [20] > 50 µM | [21] > 50 µM | [22] > 50 µM | [23] > 50 µM | [24] > 50 µM | [25] > 50 µM | [26] > 50 µM | [27] > 50 µM | [28] > 50 µM | [29] > 50 µM | [31] > 50 µM | [32] > 50 µM | [34] > 50 µM | [36] > 50 µM | [37] > 50 µM | [38] > 50 µM | [39] > 50 µM | [40] > 50 µM | [57] > 50 µM | [41] > 50 µM | [42] > 50 µM | [43] 23 µM | [44] > 50 µM | [45] > 50 µM | [46] > 50 µM | [47] > 50 µM | [48] > 50 µM | [50] > 50 µM | [51] > 50 µM | [52] > 50 µM | [53] > 50 µM | [54] > 50 µM | [55] > 50 µM
